Results taken from US20070185094A1, “Novel 3-substitued-1,4-benzodiazepines” (ASTON UNIVERSITY, priority 2003, published 2007).
Where two headings read alike, the source gives them in different places.

Tests used:
[1] = satiated rats; cited from earlier work
[2] = mice, after intravenous injections; cited from earlier work
CCKB receptor [3] = conditions: cited from earlier work
[4] = tested on: advanced pancreatic cancer; conditions: 18 patients; cited from earlier work
HT29-S-B6 cells = conditions: 10 μM, at least 3 days, exponential phase; cited from earlier work
MIA-PaCa2 cells = conditions: cited from earlier work; for IC50: MIA-PaCa2, read-out: IC50 cytotoxicity
[5] = as the HCl salt; cited from earlier work
CCKA receptor = target: T1, CCKA receptor (Rattus norvegicus, UniProt P30551); assay: 125I-CCK-8 receptor binding assay, CCKA (rat pancreas); conditions: for Ratio CCKB:CCKA: ratio of IC50 values; for CCKA binding activity in words: dimethylanilines with at least one meta group
T1 construct: Pancreatic membranes were prepared in a similar way; from tissue; host or cells: rat pancreas membranes
T1 sequence (P30551 1-444): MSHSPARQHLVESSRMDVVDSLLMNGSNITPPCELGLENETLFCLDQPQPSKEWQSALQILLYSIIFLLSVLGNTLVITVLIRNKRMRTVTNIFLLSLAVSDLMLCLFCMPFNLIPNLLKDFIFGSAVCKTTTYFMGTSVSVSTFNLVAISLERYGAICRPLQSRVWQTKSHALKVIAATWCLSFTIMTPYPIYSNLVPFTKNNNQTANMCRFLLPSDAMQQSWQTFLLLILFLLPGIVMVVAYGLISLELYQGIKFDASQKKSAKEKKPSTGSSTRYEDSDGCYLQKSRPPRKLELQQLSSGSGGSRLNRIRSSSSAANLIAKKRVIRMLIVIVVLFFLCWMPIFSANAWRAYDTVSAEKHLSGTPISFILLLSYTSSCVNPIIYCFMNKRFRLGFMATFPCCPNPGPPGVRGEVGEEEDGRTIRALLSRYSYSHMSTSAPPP
Method: (§1) CCKA and CCKB receptor binding assays were performed, by using guinea pig cerebral cortex (CCKB) or rat pancreas (CCKA). Male guinea pig brain tissues were prepared according to the modified method described by Saita et al [(1994), Characterization of YM022: its CCKB/gastrin receptor binding profile and antagonism to CCK-8-induced Ca2+ mobilization., Eur. J. Pharmacol., 269, 249-254]. Pancreatic membranes were prepared in a similar way but by Charpentier et al [(1988), Cyclic cholecystokinin analogues with high selectivity for central receptors., Proc Natl Acad Sci USA, 85, 1968-1972]. The […] CCK binding assay: Tissues were homogenised in ice cold sucrose (0.32 M, 25 ml) for 15 strokes at 500 rpm and centrifuged at 13000 rpm for 10 mins. The supernatant was re-centrifuged at 13000 rpm for 20 mins. The resulting pellet was re-dispersed to the required volume of buffer at 500 rpm and stored in aliquots at […].
(§2) The samples were incubated {with membranes (0.1 mg/ml)} in 20 mM Hepes, 1 mM EGTA, 5 mM MgCl2, 150 mm NaCl, 0.25 mg/ml bacitracin at pH 6.5 for 2 hrs at RT and then […] by centrifugation at 1100 rpm for 5 minutes. The membrane pellets were washed twice with water and the bound radioactivity was measured in a Packard Cobra Auto-gamma counter (B5005). All binding assays were carried out with L-363, 260 as an internal non-specific standard. Controls (no compound) were also added. All samples were made in duplicate and repeated twice. All compounds were initially screened for percentage inhibition at 20 μM.

CCKB receptor [6] = target: T2, CCKB receptor (Cavia porcellus, UniProt H0VZC5); assay: 125I-CCK-8 receptor binding assay, CCKB (guinea pig cerebral cortex)
T2 sequence (H0VZC5 1-426): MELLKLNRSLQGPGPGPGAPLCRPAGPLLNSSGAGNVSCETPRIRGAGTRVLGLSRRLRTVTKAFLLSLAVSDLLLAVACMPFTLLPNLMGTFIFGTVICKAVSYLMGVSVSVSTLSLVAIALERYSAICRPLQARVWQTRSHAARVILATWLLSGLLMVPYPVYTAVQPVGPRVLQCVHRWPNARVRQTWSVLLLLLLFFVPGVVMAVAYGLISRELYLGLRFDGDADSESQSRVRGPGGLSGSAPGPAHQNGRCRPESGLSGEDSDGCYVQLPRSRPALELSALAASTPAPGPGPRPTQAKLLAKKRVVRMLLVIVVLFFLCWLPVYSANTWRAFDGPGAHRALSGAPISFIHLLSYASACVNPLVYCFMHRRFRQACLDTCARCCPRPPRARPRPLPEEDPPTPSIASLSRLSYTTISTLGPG
Method: as §1, with “[…].” for “Male guinea pig brain tissues were prepared according to the modified method described by Saita et al [(1994), Characterization of YM022: its CCKB/gastrin receptor binding profile and antagonism to CCK-8-induced Ca2+ mobilization., Eur.”
as §2

[7] = target: T3, pancreatic and gallbladder CCK receptors (Homo sapiens, UniProt P32238); conditions: cited from earlier work
T3 sequence (P32238 1-428): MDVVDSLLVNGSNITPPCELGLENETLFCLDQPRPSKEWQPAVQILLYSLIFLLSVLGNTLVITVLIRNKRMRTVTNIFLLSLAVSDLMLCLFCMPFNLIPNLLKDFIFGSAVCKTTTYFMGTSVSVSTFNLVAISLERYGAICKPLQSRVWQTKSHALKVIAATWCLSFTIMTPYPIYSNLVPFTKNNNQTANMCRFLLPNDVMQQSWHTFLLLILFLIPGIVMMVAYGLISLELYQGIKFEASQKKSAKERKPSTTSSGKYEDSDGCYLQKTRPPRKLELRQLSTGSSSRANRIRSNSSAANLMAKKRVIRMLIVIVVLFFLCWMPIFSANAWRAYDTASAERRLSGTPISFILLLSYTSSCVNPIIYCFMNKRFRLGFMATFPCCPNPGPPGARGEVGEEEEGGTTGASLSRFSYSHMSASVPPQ

CCKB/gastrin receptor = conditions: cited from earlier work

In the case of `Cc1cccc(NC(=O)N[C@@H]2N=C(c3ccccc3)c3ccccc3N(C)C2=O)c1` [L-365,260], the “potency relative to Devazepide in increasing feeding frequency” value [1] is listed as 100 times, the brain uptake [2] is listed as under 0.8 % dose/gram and the IC50 (CCKB receptor [3]) is listed as 8.5 nM. For the same compound, the “affinity for gastrin/CCKB receptors relative to pancreatic CCKA” value (CCKB receptor [3]) was 80 fold and the “selectivity for CCKB receptors over CCKA” value (CCKB receptor [3]) was 87 fold.
For `Cc1cccc(NC(=O)NC2N=C(C3CCCCC3)c3ccccc3N(C)C2=O)c1` [L-708,474], the IC50 (CCKB receptor [3]) is given as 0.28 nM and the “selectivity for CCKB receptors over CCKA” value (CCKB receptor [3]) is given as 6,500 fold.
For `Cc1ccc(NC(=O)NC2N=C(C3CCCCC3)c3ccccc3N(C)C2=O)cc1Nc1nnn[nH]1` [L-737,425], the CCKA/CCKB ratio (CCKB receptor [3]) is given as 37000.
In the case of `CN1C(=O)[C@@H](NC(=O)c2cc3ccccc3[nH]2)N=C(c2ccccc2)c2ccccc21` [Devazepide], the “impact on tumor progression, pain, or nutrition” value [4] is listed as “failed to demonstrate any impact”, the “patients able to tolerate treatment” value [4] is listed as 17 of 18 and the “enhancement of baseline production of carcinoembryonic antigens” value (HT29-S-B6 cells) is listed as 5 fold. For the same compound, the “enhancement of baseline production of gastric M1 mucins” value (HT29-S-B6 cells) was 2-3 fold, the “factor of enhancement of sensitivity of MIA-PaCa2 cells to DDP” value (MIA-PaCa2 cells) was 3.5 and the IC50 (MIA-PaCa2 cells; constant exposure schedule) was 9500 ± 1400 nM.
In the case of `Cc1cccc(NC(=O)NC2N=C(N3CC4CCC(C4)C3)c3ccccc3N(C)C2=O)c1` [L-740,093], the “water solubility compared to L-365,260” value [5] is listed as “one hundred fold improved”.
In the case of `O=C1Nc2ccc(Cl)cc2C(c2ccccc2)=NC1Nc1ccccc1` (centres unmarked) [Example 53], the IC50 (CCKA receptor; Table 3) is reported as 240 nM, the “Ratio CCKB:CCKA” value (CCKA receptor; Table 3) is reported as 17 and the IC50 (CCKB receptor [6]; IC50 CCKB, Table 3) is reported as 4100 nM.
For `Cc1cccc(N(C)C2N=C(c3ccccc3)c3cc(Cl)ccc3NC2=O)c1` (centres unmarked) [Example 55, 7-chloro-3-(3-dimethylanilino)-5-phenyl-1,3-dihydro-2H-1,4-benzodiazepin-2-one], the IC50 (CCKA receptor) was 8 nM, the “Ratio CCKB:CCKA” value (CCKA receptor; Table 3) was 9 and the IC50 (CCKB receptor [6]; IC50 CCKB) was 70 nM.
With `O=C1Nc2ccc(Cl)cc2C(c2ccccc2)=NC1Nc1ccccc1Cl` (centres unmarked) [Example 38] the IC50 (CCKA receptor; Table 3) was over 20000 nM and the IC50 (CCKB receptor [6]; IC50 CCKB, Table 3) was 9300 nM.
In the case of `CC(C)C[C@@H]1N[C@H]2N(C1=O)c1ccccc1[C@@]2(O)C[C@@H]1NC(=O)c2ccccc2-n2c1nc1ccccc1c2=O` [Asperlicin], the “affinity relative to proglumide” value [7] is listed as 300-400 times.
In the case of `Cc1cc(C)cc(NC2N=C(c3ccccc3)c3cc(Cl)ccc3NC2=O)c1` (centres unmarked) [Example 50], the IC50 (CCKA receptor; Table 3) is reported as 9 nM, the “Ratio CCKB:CCKA” value (CCKA receptor; Table 3) is reported as 322 and the “CCKA binding activity in words” value (CCKA receptor) is reported as “equally active”. It also gave an IC50 (CCKB receptor [6]; IC50 CCKB, Table 3) of 2900 nM.
For `Cc1cccc(NC(=O)NC2N=C(c3ccccc3)c3ccccc3N(CC(=O)c3ccccc3C)C2=O)c1` (centres unmarked) [YM022], the CCKA/CCKB ratio (CCKB/gastrin receptor) is given as “about 1300” and the IC50 (CCKB/gastrin receptor; read-out: IC50 CCKB/gastrin receptor affinity) is given as 0.11 nM.
With `CN(c1ccccc1)C1N=C(c2ccccc2)c2cc(Cl)ccc2NC1=O` (centres unmarked) [Example 54] the IC50 (CCKA receptor) was 14 nM, the “Ratio CCKB:CCKA” value (CCKA receptor; Table 3) was 11 and the IC50 (CCKB receptor [6]; IC50 CCKB, Table 3) was 150 nM.
For `Cc1cccc(NC2N=C(c3ccccc3)c3cc(Cl)ccc3NC2=O)c1C` (centres unmarked) [Example 49], the IC50 (CCKA receptor; Table 3) was 18 nM, the “Ratio CCKB:CCKA” value (CCKA receptor; Table 3) was 333 and the “CCKA binding activity in words” value (CCKA receptor) was “equally active”. The IC50 (CCKB receptor [6]; IC50 CCKB, Table 3) was 6000 nM.
For `Cc1ccc(NC2N=C(c3ccccc3)c3cc(Cl)ccc3NC2=O)cc1C` (centres unmarked) [Example 48], the IC50 (CCKA receptor; Table 3) was 15 nM, the “Ratio CCKB:CCKA” value (CCKA receptor; Table 3) was 61 and the “CCKA binding activity in words” value (CCKA receptor) was “equally active”. The IC50 (CCKB receptor [6]; IC50 CCKB, Table 3) was 920 nM.
For `Cc1cccc(N(C)C2N=C(c3ccccc3)c3cc(Cl)ccc3N(CC(=O)C(C)(C)C)C2=O)c1` (racemic) [Example 64, 7-chloro-1-(3,3-dimethyl-2-oxobutyl)-3-(3-dimethylanilino)-5-phenyl-1,3-dihydro-2H-1,4-benzodiazepin-2-one], the IC50 (CCKA receptor) was about 24 nM and the IC50 (CCKB receptor [6]; read-out: IC50 CCKB) was about 8 nM.
In the case of `N.N.[Cl][Pt][Cl]` [DDP, cisplatin], the IC50 (MIA-PaCa2 cells; 1-h exposure) is given as 35300 ± 3200 nM.
For `O=C1Nc2ccc(Cl)cc2C(c2ccccc2)=NC1Nc1cccc(Cl)c1` (centres unmarked) [Example 39, 7-chloro-3-(3-chloroanilino)-5-phenyl-1,3-dihydro-2H-1,4-benzodiazepin-2-one], the IC50 (CCKA receptor) was 270 nM, the “Ratio CCKB:CCKA” value (CCKA receptor; Table 3) was 23 and the IC50 (CCKB receptor [6]; IC50 CCKB, Table 3) was 6200 nM.
